Tested on: Plasmodium berghei
Assay: Luciferase/luciferin-expressing antifolate-resistant parasites were used to infect a culture of HepG2 cells that were pre-incubated with compounds. Infected hepatocytes emit light due to the luciferase reaction. Assay results are presented as the percent inhibition of light emission compared to control. […]
Type: functional
Conditions: sporozoite; for IC90: read-out: LUCIFERASE INFECTION ASSAY - IC90

Cc1ccc(S(=O)(=O)n2c3ccc(Cl)cc3c3nc(C)sc32)cc1
IC50 (FFLUC_HILL_SLOPE 13.1, FFLUC_R_SQUARED 0.689, read-out: LUCIFERASE INFECTION ASSAY - IC50): > 8.76 µM
IC90: > 8.76 µM

COc1ccc(-c2cc(NC=O)c3ncc(-c4cc(OC)c(OC)c(OC)c4)n3c2)c(OC)c1
IC50 (FFLUC_HILL_SLOPE 13.2, FFLUC_R_SQUARED 0.535, HEPG2TOX_HILL_SLOPE 2.06, HEPG2TOX_R_SQUARED 0.871, PBLUC_HILL_SLOPE 2.04, PBLUC_R_SQUARED 0.466, read-out: LUCIFERASE INFECTION ASSAY - IC50): 2.03 µM
IC90: 5.96 µM

O=C(Nc1nc2ccccc2[nH]1)c1ccccn1
IC50 (FFLUC_HILL_SLOPE 12.7, FFLUC_R_SQUARED 0.6, read-out: LUCIFERASE INFECTION ASSAY - IC50): > 10 µM
IC90: > 10 µM

Cc1cc(NC(=O)Cn2ncc(Br)c(Br)c2=O)n(C)n1
IC50 (FFLUC_HILL_SLOPE 13, FFLUC_R_SQUARED 0.376, HEPG2TOX_HILL_SLOPE 25.8, HEPG2TOX_R_SQUARED 0.794, PBLUC_HILL_SLOPE 3.09, PBLUC_R_SQUARED 0.556, read-out: LUCIFERASE INFECTION ASSAY - IC50): 5.35 µM
IC90: > 10 µM

Nc1c(NCCO)cc(NC2CCCCC2)c2c1C(=O)c1ccccc1C2=O
IC50 (FFLUC_HILL_SLOPE 12.9, FFLUC_R_SQUARED 0.405, PBLUC_HILL_SLOPE 2.49, PBLUC_R_SQUARED 0.563, read-out: LUCIFERASE INFECTION ASSAY - IC50): > 8.7 µM
IC90: > 8.7 µM

CCCCCCOCC[N+](C)(CCOCCCCCC)CCOCCCCCC
IC50 (FFLUC_HILL_SLOPE 13.1, FFLUC_R_SQUARED 0.46, HEPG2TOX_HILL_SLOPE 1.63, HEPG2TOX_R_SQUARED 0.995, PBLUC_HILL_SLOPE 15.2, PBLUC_R_SQUARED 0.558, read-out: LUCIFERASE INFECTION ASSAY - IC50): 0.933 µM
IC90: 1.08 µM

CC1CCN(S(=O)(=O)c2ccc(C(=O)NCc3cccc(C(F)(F)F)c3)cc2)CC1
IC50 (FFLUC_HILL_SLOPE 13.2, FFLUC_R_SQUARED 0.207, read-out: LUCIFERASE INFECTION ASSAY - IC50): > 10 µM
IC90: > 10 µM

Fc1ccc(N2c3cc(F)ccc3N=C(c3ccccc3)C2c2ccccc2)cc1 (configuration not stated)
IC50 (FFLUC_HILL_SLOPE 13.2, FFLUC_R_SQUARED 0.317, HEPG2TOX_HILL_SLOPE 1.35, HEPG2TOX_R_SQUARED 0.526, PBLUC_HILL_SLOPE 1.66, PBLUC_R_SQUARED 0.328, read-out: LUCIFERASE INFECTION ASSAY - IC50): 5.47 µM
IC90: > 8.32 µM

COc1ccc(C2=Cc3nc4ccccc4n3C3(C(F)(F)F)OC(c4ccccc4)=NN23)cc1 (configuration not stated)
IC50 (FFLUC_HILL_SLOPE 13.2, FFLUC_R_SQUARED 0.193, HEPG2TOX_HILL_SLOPE 11.1, HEPG2TOX_R_SQUARED 0.974, PBLUC_HILL_SLOPE 14.1, PBLUC_R_SQUARED 0.236, read-out: LUCIFERASE INFECTION ASSAY - IC50): 9.44 µM
IC90: > 10 µM

N#Cc1c(Cl)nsc1NCc1cnn(Cc2ccccc2)c1
IC50 (FFLUC_HILL_SLOPE 12.9, FFLUC_R_SQUARED 0.244, HEPG2TOX_HILL_SLOPE 2.27, HEPG2TOX_R_SQUARED 0.949, PBLUC_HILL_SLOPE 20.5, PBLUC_R_SQUARED 0.627, read-out: LUCIFERASE INFECTION ASSAY - IC50): 1.1 µM
IC90: 1.22 µM

CC(C)(C)NS(=O)(=O)c1cccc2c(N)cccc12
IC50 (FFLUC_HILL_SLOPE 12.8, FFLUC_R_SQUARED 0.416, HEPG2TOX_HILL_SLOPE 12.3, HEPG2TOX_R_SQUARED 0.393, PBLUC_HILL_SLOPE 11.3, PBLUC_R_SQUARED 0.345, read-out: LUCIFERASE INFECTION ASSAY - IC50): 4.49 µM
IC90: 5.45 µM

C=C(C)C/N=c1\scc(-c2ccc(OC)cc2OC)n1/N=C(\C)c1ccc(OC)cc1
IC50 (FFLUC_HILL_SLOPE 13, FFLUC_R_SQUARED 0.36, read-out: LUCIFERASE INFECTION ASSAY - IC50): > 10 µM
IC90: > 10 µM

CCOC(=O)c1c(CC(C)C)csc1NC(=O)CNc1ccc(-n2cnnn2)cc1
IC50 (FFLUC_HILL_SLOPE 13, FFLUC_R_SQUARED 0.249, read-out: LUCIFERASE INFECTION ASSAY - IC50): > 10 µM
IC90: > 10 µM

C=C1N(C)c2ccc(NC(=O)c3ccccc3)cc2C1(C)C
IC50 (FFLUC_HILL_SLOPE 13, FFLUC_R_SQUARED 0.522, HEPG2TOX_HILL_SLOPE 2.51, HEPG2TOX_R_SQUARED 0.97, PBLUC_HILL_SLOPE 14.6, PBLUC_R_SQUARED 0.431, read-out: LUCIFERASE INFECTION ASSAY - IC50): 2.98 µM
IC90: 3.46 µM

COC(=O)c1ccc(C(=O)OC)c(N2C(=O)C=CC2=O)c1
IC50 (FFLUC_HILL_SLOPE 12.8, FFLUC_R_SQUARED 0.0109, PBLUC_HILL_SLOPE 0.51, PBLUC_R_SQUARED 0.565, read-out: LUCIFERASE INFECTION ASSAY - IC50): 0.503 µM
IC90: > 11.4 µM

COc1cccc(-c2[nH]nc3ccnc(-c4ccc(C(C)C)cc4)c23)c1
IC50 (FFLUC_HILL_SLOPE 13.2, FFLUC_R_SQUARED 0.418, read-out: LUCIFERASE INFECTION ASSAY - IC50): > 10 µM
IC90: > 10 µM

CC(=O)N(c1nn(CN(C2CC2)C2CCS(=O)(=O)C2)c(=S)s1)C1CC1 (configuration not stated)
IC50 (FFLUC_HILL_SLOPE 12.8, FFLUC_R_SQUARED 0.42, read-out: LUCIFERASE INFECTION ASSAY - IC50): > 10 µM
IC90: > 10 µM

COc1ccc(-c2nc3ccccc3n2-c2cc(-c3ccccc3)nn2-c2ccccc2)cc1
IC50 (FFLUC_HILL_SLOPE 12.7, FFLUC_R_SQUARED 0.403, HEPG2TOX_HILL_SLOPE 1.43, HEPG2TOX_R_SQUARED 0.399, PBLUC_HILL_SLOPE 4.08, PBLUC_R_SQUARED 0.666, read-out: LUCIFERASE INFECTION ASSAY - IC50): 4.92 µM
IC90: 8.43 µM

CC(C)(C)c1ccc(-c2nc(-c3ccc(C(F)(F)F)cc3)cs2)cc1
IC50 (FFLUC_HILL_SLOPE 12.9, FFLUC_R_SQUARED 0.362, PBLUC_HILL_SLOPE 0.825, PBLUC_R_SQUARED 0.291, read-out: LUCIFERASE INFECTION ASSAY - IC50): 3.25 µM
IC90: > 9.13 µM

Cc1cccc(-c2noc(CNC(=O)Cc3ccc(-c4ccccc4)cc3)n2)c1
IC50 (FFLUC_HILL_SLOPE 13.2, FFLUC_R_SQUARED 0.46, HEPG2TOX_HILL_SLOPE 2.91, HEPG2TOX_R_SQUARED 0.962, PBLUC_HILL_SLOPE 21.5, PBLUC_R_SQUARED 0.134, read-out: LUCIFERASE INFECTION ASSAY - IC50): 2.87 µM
IC90: 3.18 µM

CC(C)(C)c1nnc(Sc2ncc([N+](=O)[O-])s2)[nH]1
IC50 (FFLUC_HILL_SLOPE 12.8, FFLUC_R_SQUARED 0.253, HEPG2TOX_HILL_SLOPE 7.13, HEPG2TOX_R_SQUARED 0.706, PBLUC_HILL_SLOPE 14.6, PBLUC_R_SQUARED 0.134, read-out: LUCIFERASE INFECTION ASSAY - IC50): 9.74 µM
IC90: 11.3 µM

Cc1ccc(C(c2cc(Cl)c3cccnc3c2O)N2CCCC2)cc1 (configuration not stated)
IC50 (FFLUC_HILL_SLOPE 12.7, FFLUC_R_SQUARED 0.41, HEPG2TOX_HILL_SLOPE 6.94, HEPG2TOX_R_SQUARED 0.0505, PBLUC_HILL_SLOPE 13.5, PBLUC_R_SQUARED 0.562, read-out: LUCIFERASE INFECTION ASSAY - IC50): 3.5 µM
IC90: 4.12 µM

Cc1cc2occ(CC(=O)N(c3ccc(F)cc3)c3nc4ccccc4s3)c2cc1C(C)C
IC50 (FFLUC_HILL_SLOPE 13, FFLUC_R_SQUARED 0.172, read-out: LUCIFERASE INFECTION ASSAY - IC50): > 10 µM
IC90: > 10 µM

CCOC(=O)C1=C(C)NC(C)=C(C(=O)OCC)C1c1ccc(-c2cc(C(F)(F)F)cc(C(F)(F)F)c2)o1
IC50 (FFLUC_HILL_SLOPE 13.3, FFLUC_R_SQUARED 0.16, read-out: LUCIFERASE INFECTION ASSAY - IC50): > 6.21 µM
IC90: > 6.21 µM

N#CC(C(=O)c1ccccc1NC(=O)C(F)(F)F)c1nc(-c2ccc(Cl)cc2)cs1 (configuration not stated)
IC50 (FFLUC_HILL_SLOPE 12.8, FFLUC_R_SQUARED 0.656, read-out: LUCIFERASE INFECTION ASSAY - IC50): > 10 µM
IC90: > 10 µM

CCO/C=N/Nc1nc(C(F)(F)F)nc2c1cnn2-c1ccccc1
IC50 (FFLUC_HILL_SLOPE 12.8, FFLUC_R_SQUARED 0.468, PBLUC_HILL_SLOPE 1.59, PBLUC_R_SQUARED 0.442, read-out: LUCIFERASE INFECTION ASSAY - IC50): 4.62 µM
IC90: > 10 µM

O=S(=O)(/N=C(\N/N=C/c1ccc(Cl)cc1)N1CCCC1)c1ccc(-n2nc(C(F)(F)F)cc2-c2cccs2)cc1
IC50 (FFLUC_HILL_SLOPE 13, FFLUC_R_SQUARED 0.6, read-out: LUCIFERASE INFECTION ASSAY - IC50): > 5.44 µM
IC90: > 5.44 µM

N#C/C(=C\c1ccc(O)cc1)c1nc(C(c2ccccc2)c2ccccc2)no1
IC50 (FFLUC_HILL_SLOPE 12.8, FFLUC_R_SQUARED 0.5, read-out: LUCIFERASE INFECTION ASSAY - IC50): > 10 µM
IC90: > 10 µM

N#C/C(=N\Nc1cc(C(F)(F)F)cc(C(F)(F)F)c1)C(=O)c1ccco1
IC50 (FFLUC_HILL_SLOPE 13.1, FFLUC_R_SQUARED 0.556, HEPG2TOX_HILL_SLOPE 1.19, HEPG2TOX_R_SQUARED 0.748, PBLUC_HILL_SLOPE 4.82, PBLUC_R_SQUARED 0.319, read-out: LUCIFERASE INFECTION ASSAY - IC50): 5.35 µM
IC90: 8.44 µM

N=C1C(=S)N(c2ccc(Cl)c(Cl)c2)C(=O)N1c1ccc(OC(F)(F)F)cc1
IC50 (FFLUC_HILL_SLOPE 13.1, FFLUC_R_SQUARED 0.176, read-out: LUCIFERASE INFECTION ASSAY - IC50): > 7.6 µM
IC90: > 7.6 µM

Cc1ccc2nc(SCC(=O)c3cc(C)n(-c4ccc5c(c4)OCCO5)c3C)[nH]c2c1
IC50 (FFLUC_HILL_SLOPE 12.9, FFLUC_R_SQUARED 0.345, HEPG2TOX_HILL_SLOPE 0.403, HEPG2TOX_R_SQUARED 0.877, read-out: LUCIFERASE INFECTION ASSAY - IC50): > 10 µM
IC90: > 10 µM

Source: ChEMBL document CHEMBL4483862, “Open-source discovery of chemical leads for next-generation chemoprotective antimalarials” (2018)
